Reference: patent US20090118350A1, “Biomarkers for Identifying Efficacy of Tegaserod in Patients with Chronic Constipation” (priority 2005, published 2009)

Test system: patients with chronic constipation
Test: Clinical trial, primary efficacy: mean increase of 1 or more CSBM/week over baseline after 4 weeks of treatment (responders), by subgroup and genotype
Type: in vivo, human
Conditions: for % Responders: 6-mg bid
Procedure: Introduction. A clinical trial was performed to evaluate the efficacy of tegaserod (Zelmac®/Zelnorm™) at 6 mg bid (12 mg/day) or 2 mg bid (4 mg/day) vs. placebo by measuring the number of complete spontaneous bowel movements (CSBM) during the first 4 weeks of treatment. Secondary objectives included evaluating the number of CSBM during the entire 12-week treatment period, bowel habits, laxative use, and safety and tolerability issues. The clinical trial design consisted of a 2-week baseline period without medication, a 12-week, randomized, double-blind, placebo-controlled treatment period, and a 4-week withdrawal period without study medication. As part of the clinical trial, DNA was collected from patients at screening for pharmacogenetic analysis to evaluate genetic polymorphisms relating to drug targets and disease aetiology.
Samples. A total 1348 patients were randomized as the intent-to-treat (ITT) population. Blood samples from these patients were collected at the time of patient screening and DNA was extracted using the PUREGENE™ DNA Isolation Kit (D-50K). Of these, samples from 738 randomized patients had good quality genotype data for at least half of the 55 SNPs evaluated.
Clinical assessments. […] The primary efficacy endpoint evaluated was the increase of 1 or more CSBM/week over baseline after 4 weeks of treatment. A secondary endpoint evaluated in this genotyping study was RESP12, the increase of 1 of more CSBM/week over baseline after 12 weeks of treatment. Patients were classified as responders if they met these criteria and had completed at least 7 days of treatment. Additional secondary efficacy assessments were evaluated based on the weekly diary assessments, such as bothersome constipation, bothersome abdominal pain, and satisfaction with bowel habits at the end of the 12-week treatment period (using the baseline value as a co-variant for analysis).
Genotyping. A total of 61 polymorphisms in 23 candidate genes were selected for analysis. Genotyping was performed using the TaqMan® technology for most of the assays, while a few were performed in-house using the Third Wave Technologies Invader Assay technique (see TABLE 2 for assay IDs for all evaluated SNPs). Of the 61 SNPs genotyped, 55 yielded good quality, polymorphic genotypes for use in further evaluation.
Statistical analysis. Statistical analysis was performed using SAS version 8.2 (The SAS Institute, Cary, N.C., USA). Analysis methods included Fisher's Exact tests, analysis of Covariance (ANCOVA), logistic regression, and Mantel-Haenzel tests to determine odds ratios and 95% confidence intervals, with significance established at p<0.05. Calculation of linkage disequilibrium was performed using the GOLD (graphical overview of linkage disequilibrium) method described by Abecasis & Cookson, Bioinformatics 16: 182-3 (2000).
Demographic comparisons. TABLE 3 presents the demographic breakdown of the patients in the overall clinical study and those included in this genotype analysis. Distributions were similar between the genotype population and the total patient population. […] Based on these findings, it was decided to limit analysis to the Caucasian population, which accounted for nearly 90% of all patients, to prevent a confounding effect of race on subsequent genotype analyses. Furthermore, the analysis was also limited to those intent-to-treat patients that were treated with tegaserod or placebo for at least 7 days (total of 635 patients).
Comparison of overall response rates. TABLE 4 presents the overall response for the primary efficacy endpoint (a mean increase in 1 or more CSBM/week over baseline after 4 weeks) for tegaserod 6-mg bid compared with placebo for both the overall patient population and the subgroup of patients for which we had genotype data (all races and Caucasians only). […]

## [H]/N=C(/NCCCCC)N/N=C/c1c[nH]c2ccc(OC)cc12 [tegaserod, Tegaserod]
4 weeks, All Caucasians (ITT, >=7 days), Age <65, M + F
  % Responders: 46%
4 weeks, All Caucasians (ITT, >=7 days), Age >=65, M + F
  % Responders: 33%
4 weeks, All Caucasians (ITT, >=7 days), Age All, Female
  % Responders: 46%
4 weeks, All Caucasians (ITT, >=7 days), Age All, M + F
  % Responders: 45%
4 weeks, All Caucasians (ITT, >=7 days), Age All, Male
  % Responders: 37%
4 weeks, All genotyped (ITT, >=7 days), Age <65, M + F
  % Responders: 45%
4 weeks, All genotyped (ITT, >=7 days), Age >=65, M + F
  % Responders: 50%
4 weeks, All genotyped (ITT, >=7 days), Age All, Female
  % Responders: 45%
4 weeks, All genotyped (ITT, >=7 days), Age All, M + F
  % Responders: 46%
4 weeks, All genotyped (ITT, >=7 days), Age All, Male
  % Responders: 48%
4 weeks, All patients (ITT, >=7 days), Age <65, M + F
  % Responders: 45%
4 weeks, All patients (ITT, >=7 days), Age >=65, M + F
  % Responders: 35%
4 weeks, All patients (ITT, >=7 days), Age All, Female
  % Responders: 45%
4 weeks, All patients (ITT, >=7 days), Age All, M + F
  % Responders: 44%
4 weeks, All patients (ITT, >=7 days), Age All, Male
  % Responders: 36%
4 weeks, Caucasians genotyped (ITT, >=7 days), Age <65, M + F, all genotypes
  % Responders: 46%
4 weeks, Caucasians genotyped (ITT, >=7 days), Age >=65, M + F, all genotypes
  % Responders: 47%
4 weeks, Caucasians genotyped (ITT, >=7 days), Age All, Female, all genotypes
  % Responders: 45%
4 weeks, Caucasians genotyped (ITT, >=7 days), Age All, M + F, all genotypes
  % Responders: 46%
4 weeks, Caucasians genotyped (ITT, >=7 days), Age All, Male, all genotypes
  % Responders: 52%
4 weeks, ITT Caucasians >=7 days, 0 of 14 SNPs
  % Responders: 32%
4 weeks, ITT Caucasians >=7 days, >=1 of 14 SNPs
  % Responders: 53%
4 weeks, ITT Caucasians >=7 days, AQP3 (PG ID 1838) genotype CC
  % Responders: 43%
4 weeks, ITT Caucasians >=7 days, AQP3 (PG ID 1838) genotype CG
  % Responders: 47%
4 weeks, ITT Caucasians >=7 days, AQP3 (PG ID 1838) genotype GG
  % Responders: 71%
4 weeks, ITT Caucasians >=7 days, Female (All ages), 0 of the 12 SNPs
  % Responders: 33%
4 weeks, ITT Caucasians >=7 days, Female (All ages), 1-12 of the 12 SNPs
  % Responders: 59%
4 weeks, ITT Caucasians >=7 days, HTR3B (PG ID 3755) genotype AA
  % Responders: 46%
4 weeks, ITT Caucasians >=7 days, HTR3B (PG ID 3755) genotype AC
  % Responders: 44%
4 weeks, ITT Caucasians >=7 days, HTR3B (PG ID 3755) genotype CC
  % Responders: 67%
4 weeks, ITT Caucasians >=7 days, HTR4 (PG ID 1746) genotype CC
  % Responders: 42%
4 weeks, ITT Caucasians >=7 days, HTR4 (PG ID 1746) genotype CT
  % Responders: 44%
4 weeks, ITT Caucasians >=7 days, HTR4 (PG ID 1746) genotype TT
  % Responders: 75%
4 weeks, ITT Caucasians >=7 days, HTR4 (PG ID 3743) genotype AA
  % Responders: 43%
4 weeks, ITT Caucasians >=7 days, HTR4 (PG ID 3743) genotype AC
  % Responders: 46%
4 weeks, ITT Caucasians >=7 days, HTR4 (PG ID 3743) genotype CC
  % Responders: 78%
4 weeks, ITT Caucasians >=7 days, HTR4 (PG ID 3747) genotype AA
  % Responders: 43%
4 weeks, ITT Caucasians >=7 days, HTR4 (PG ID 3747) genotype AT
  % Responders: 45%
4 weeks, ITT Caucasians >=7 days, HTR4 (PG ID 3747) genotype TT
  % Responders: 70%
4 weeks, ITT Caucasians >=7 days, HTR4 (PG ID 3753) genotype CC
  % Responders: 43%
4 weeks, ITT Caucasians >=7 days, HTR4 (PG ID 3753) genotype CT
  % Responders: 44%
4 weeks, ITT Caucasians >=7 days, HTR4 (PG ID 3753) genotype TT
  % Responders: 75%
4 weeks, ITT Caucasians >=7 days, HTR4 (PG ID 3754) genotype AA
  % Responders: 46%
4 weeks, ITT Caucasians >=7 days, HTR4 (PG ID 3754) genotype AT
  % Responders: 42%
4 weeks, ITT Caucasians >=7 days, HTR4 (PG ID 3754) genotype TT
  % Responders: 67%
4 weeks, ITT Caucasians >=7 days, HTR4 (PG ID 3756) genotype AA
  % Responders: 39%
4 weeks, ITT Caucasians >=7 days, HTR4 (PG ID 3756) genotype AC
  % Responders: 46%
4 weeks, ITT Caucasians >=7 days, HTR4 (PG ID 3756) genotype CC
  % Responders: 71%
4 weeks, ITT Caucasians >=7 days, M + F (<65), 0 of the 12 SNPs
  % Responders: 33%
4 weeks, ITT Caucasians >=7 days, M + F (<65), 1-12 of the 12 SNPs
  % Responders: 61%
4 weeks, ITT Caucasians >=7 days, M + F (>=65), 0 of the 12 SNPs
  % Responders: 14%
4 weeks, ITT Caucasians >=7 days, M + F (>=65), 1-12 of the 12 SNPs
  % Responders: 70%
4 weeks, ITT Caucasians >=7 days, M + F (All ages), 0 of the 12 high responder SNPs
  % Responders: 31%
4 weeks, ITT Caucasians >=7 days, M + F (All ages), 1-12 of the 12 high responder SNPs
  % Responders: 62%
4 weeks, ITT Caucasians >=7 days, MLN (PG ID 1783) genotype CC
  % Responders: 47%
4 weeks, ITT Caucasians >=7 days, MLN (PG ID 1783) genotype CT
  % Responders: 40%
4 weeks, ITT Caucasians >=7 days, MLN (PG ID 1783) genotype TT
  % Responders: 63%
4 weeks, ITT Caucasians >=7 days, Male (All ages), 0 of the 12 SNPs
  % Responders: 20%
4 weeks, ITT Caucasians >=7 days, Male (All ages), 1-12 of the 12 SNPs
  % Responders: 82%
4 weeks, ITT Caucasians >=7 days, SCNN1A (PG ID 3806) genotype GG
  % Responders: 62%
4 weeks, ITT Caucasians >=7 days, SCNN1A (PG ID 3806) genotype GT
  % Responders: 47%
4 weeks, ITT Caucasians >=7 days, SCNN1A (PG ID 3806) genotype TT
  % Responders: 36%
4 weeks, ITT Caucasians >=7 days, SLC12A2 (PG ID 1842) genotype AA
  % Responders: 69%
4 weeks, ITT Caucasians >=7 days, SLC12A2 (PG ID 1842) genotype AG
  % Responders: 27%
4 weeks, ITT Caucasians >=7 days, SLC12A2 (PG ID 1842) genotype GG
  % Responders: 51%
4 weeks, ITT Caucasians >=7 days, SLC12A2 (PG ID 3801) genotype CC
  % Responders: 75%
4 weeks, ITT Caucasians >=7 days, SLC12A2 (PG ID 3801) genotype CT
  % Responders: 27%
4 weeks, ITT Caucasians >=7 days, SLC12A2 (PG ID 3801) genotype TT
  % Responders: 52%
4 weeks, ITT Caucasians >=7 days, TPH1 (PG ID 1756) genotype GG
  % Responders: 51%
4 weeks, ITT Caucasians >=7 days, TPH1 (PG ID 1756) genotype GT
  % Responders: 48%
4 weeks, ITT Caucasians >=7 days, TPH1 (PG ID 1756) genotype TT
  % Responders: 36%
4 weeks, ITT Caucasians >=7 days, TPH1 (PG ID 3784) genotype CC
  % Responders: 32%
4 weeks, ITT Caucasians >=7 days, TPH1 (PG ID 3784) genotype CT
  % Responders: 49%
4 weeks, ITT Caucasians >=7 days, TPH1 (PG ID 3784) genotype TT
  % Responders: 50%
Lower dose 2-mg bid, 4 weeks, compared with placebo and with 6-mg bid
  rate of response: the response was less than that seen for the 6-mg bid dose
The two other genotyped SCNN1A SNPs (near 5' end and near 3' end)
  Odds Ratio: > 3.5
